Experimental findings from patent US9040530B2, “1,2,4-triazine-6-carboxamide kinase inhibitors” (Portola Pharmaceuticals, Inc., priority 2012, dated 2015) are described below.

This test has as its target T1, full length active recombinant SYK enzyme (Homo sapiens, UniProt P43405).
T1 construct: full length active recombinant SYK enzyme (Millipore, Calif.); purchased Millipore
The experiment in a line: Inhibition of Syk tyrosine phosphorylation activity (LANCE TR-FRET kinase assay). Particulars: 1 nM active SYK enzyme, 550 nM SYK-substrate, 100 μM ATP, 1 hour at room temperature. The format is biochemical. As to the method: The in vitro and in vivo human Syk activities of the inventive compounds can be determined by various procedures known in the art, such as a test for their ability to inhibit the activity of human plasma Syk.
Inhibition of Syk Tyrosine Phosphorylation Activity
SYK tyrosine phosphorylation activity is measured using the LANCE™ Technology developed by Perkin Elmer Life and Analytical Sciences (Boston, Mass.). LANCE™ refers to homogeneous time resolved fluorometry applications using techniques such as time-resolved fluorescence resonance energy transfer assay (TR-FRET) (see generally for procedures in Perkin Elmer Application Note—How to Optimize a Tyrosine Kinase Assay Using Time Resolved Fluorescence-Based LANCE Detection, wwww.perkinelmer.com/lifesciences). The assay principle involves detection of a phosphorylated substrate using energy transfer from a phosphospecific europium-labeled antibody to streptavidin-allophycocyanin as an acceptor.
Molecules are reconstituted in 30% DMSO and serially diluted 1:3 with the final dilution containing DMSO in the absence of the candidate molecule. The final DMSO concentration in the assay is 3%. Kinase assays are performed as a two part reaction. […] The second reaction involves termination of the kinase reaction and the simultaneous addition of the detection reagents-europium-labeled anti-phosphotyrosine reagent (Eu-W1024-PY100, Perkin Elmer, Boston, Mass.) and Streptavidin-Allophycocyanin detection reagent (SA-APC, Prozyme, CA). The kinase reaction is performed in a black U-bottom 96-well microtitre plate. […] The reaction is allowed to proceed for 1 hour at room temperature. The quench buffer contains 100 mM Tris pH 7.5, 300 mM […], 20 mM EDTA, 0.02% Brij35, and 0.5% BSA. The detection reagents are added to the reaction mixture at the following dilutions-1:500 for Eu-W1024-PY100 and 1:250 for SA-APC. The kinase reaction is terminated by the addition of 50 μL quench buffer containing the detection reagents. The detection is allowed to proceed for 1 hr at room temperature. Detection of the phosphorlated substrate in the absence and presence of inhibitors is measured in the TR-FRET instrument, Analyst HT (Molecular Probes, Sunnyvale, Calif.) and the condition for measurements are set up using CriterionHost Release 2.0 (Molecular Probes, Sunnyvale, Calif.). […] IC50s were derived by non-linear regression analysis.
Background: In TR-FRET formats the signal depends on donor and acceptor labels being close together.
On to `Cn1ccc2c(Nc3nc(N[C@@H]4CCCC[C@@H]4N)nnc3C(N)=O)ccnc21` [Example 129, 3-(((1R,2S)-2-aminocyclohexyl)amino)-5-((1-methyl-1H-pyrrolo[2,3-b]pyridin-4-yl)amino)-1,2,4-triazine-6-carboxamide], for which the IC50 is below 1 nM.

`Cn1cc(C#N)c2ccc(Nc3nc(N[C@@H]4CCCC[C@@H]4N)nnc3C(N)=O)cc21` [Example 136, 3-(((1R,2S)-2-aminocyclohexyl)amino)-5-((3-cyano-1-methyl-1H-indol-6-yl)amino)-1,2,4-triazine-6-carboxamide]: the IC50 was 1 to 10 nM.

In the case of `NC(=O)c1nnc(N[C@@H]2CCCC[C@@H]2N)nc1Nc1csc2ncccc12` [Example 37, 3-(((1R,2S)-2-aminocyclohexyl)amino)-5-(thieno[2,3-b]pyridin-3-ylamino)-1,2,4-triazine-6-carboxamide], the concentration for half-maximal inhibition (IC50) was 1 to 10 nM.

`Cc1ccc(Nc2nc(N[C@H](CC(C)C)C(N)=O)nnc2C(N)=O)cc1` [Example 121, (R)-3-((1-amino-4-methyl-1-oxopentan-2-yl)amino)-5-(p-tolylamino)-1,2,4-triazine-6-carboxamide]: the IC50 was 10 to 100 nM.

Turning to `CN(C)c1ccc(Nc2nc(N[C@@H]3CCCC[C@@H]3N)nnc2C(N)=O)cc1F` [Example 161, 3-(((1R,2S)-2-aminocyclohexyl)amino)-5-((4-(dimethylamino)-3-fluorophenyl)amino)-1,2,4-triazine-6-carboxamide], the IC50 is 10 to 100 nM.

Take `CC[C@@H](Nc1nnc(C(N)=O)c(Nc2ccc(C)cc2)n1)C(N)=O` [Example 10, (R)-3-((1-amino-1-oxobutan-2-yl)amino)-5-(p-tolylamino)-1,2,4-triazine-6-carboxamide]: the IC50 lay within 10 to 100 nM.

As for `Cc1ccc(Nc2nc(N[C@@H]3CCCC(F)(F)[C@@H]3N)nnc2C(N)=O)cc1C` [Example 204, 3-(((1R,2R)-2-amino-3,3-difluorocyclohexyl)amino)-5-((3,4-dimethylphenyl)amino)-1,2,4-triazine-6-carboxamide], the IC50 was 10 to 100 nM.

For the compound `NC(=O)c1nnc(N[C@@H]2CCCC(F)(F)[C@@H]2N)nc1Nc1ccc(Cl)cc1` [Example 250, 3-(((1R,2R)-2-amino-3,3-difluorocyclohexyl)amino)-5-((4-chlorophenyl)amino)-1,2,4-triazine-6-carboxamide], the IC50 lay in the range of 100 to 1000 nM.

For the compound `N#Cc1ccccc1Nc1nc(N[C@@H]2CCCC[C@@H]2N)nnc1C(N)=O` [Example 115, 3-(((1R,2S)-2-aminocyclohexyl)amino)-5-((2-cyanophenyl)amino)-1,2,4-triazine-6-carboxamide], the IC50 lay within 100 to 1000 nM.

In the case of `CC[C@@H](Nc1nnc(C(N)=O)c(Nc2cccc(-c3ncccn3)c2)n1)C(N)=O` [Example 84, (R)-3-((1-amino-1-oxobutan-2-yl)amino)-5-((3-(pyrimidin-2-yl)phenyl)amino)-1,2,4-triazine-6-carboxamide], the IC50 was 100 to 1000 nM.

For `CC[C@@H](Nc1nnc(C(N)=O)c(Nc2ccc(Cl)c(C(F)(F)F)c2)n1)C(N)=O` [Example 240, (R)-3-((1-amino-1-oxobutan-2-yl)amino)-5-((4-chloro-3-(trifluoromethyl)phenyl)amino)-1,2,4-triazine-6-carboxamide], the IC50 lay within 100 to 1000 nM.

Take `Cn1ccc2cc(Nc3nc(N[C@@H]4CCCC(F)(F)[C@@H]4N)nnc3C(N)=O)cnc21` [Example 151, 3-(((1R,2R)-2-amino-3,3-difluorocyclohexyl)amino)-5-((1-methyl-1H-pyrrolo[2,3-b]pyridin-5-yl)amino)-1,2,4-triazine-6-carboxamide]: the half-maximal inhibitory concentration (IC50) lay within 100 to 1000 nM.

For the compound `N#Cc1ccc(Nc2nc(N[C@@H]3CCCC[C@@H]3N)nnc2C(N)=O)cc1` [Example 75, 3-(((1R,2S)-2-aminocyclohexyl)amino)-5-((4-cyanophenyl)amino)-1,2,4-triazine-6-carboxamide], the IC50 fell in the range of 10 to 100 nM.

`NC(=O)c1nnc(N[C@@H]2CCCC[C@@H]2N)nc1Nc1ccc(C(=O)N2CCC2)nc1` [Example 66, 3-(((1R,2S)-2-aminocyclohexyl)amino)-5-((6-(azetidine-1-carbonyl)pyridin-3-yl)amino)-1,2,4-triazine-6-carboxamide]: the IC50 lay within 10 to 100 nM.

In the case of `Cc1cc(Nc2nc(N[C@H](CC3CC3)C(N)=O)nnc2C(N)=O)sn1` [Example 141, (R)-3-((1-amino-3-cyclopropyl-1-oxopropan-2-yl)amino)-5-((3-methylisothiazol-5-yl)amino)-1,2,4-triazine-6-carboxamide], the IC50 fell in the range of 10 to 100 nM.

Consider `NC(=O)c1nnc(N[C@H]2CC[C@@H](N)CC2)nc1Nc1ccc2ncccc2c1` [Example 56, 3-(((1S,4S)-4-aminocyclohexyl)amino)-5-(quinolin-6-ylamino)-1,2,4-triazine-6-carboxamide], for which the 50% inhibitory concentration (IC50) lay in the range of 10 to 100 nM.

Regarding `CC[C@@H](Nc1nnc(C(N)=O)c(Nc2cc(C)ns2)n1)C(N)=O` [Example 140, (R)-3-((1-amino-1-oxobutan-2-yl)amino)-5-((3-methylisothiazol-5-yl)amino)-1,2,4-triazine-6-carboxamide], the half-maximal inhibitory concentration (IC50) lay within 10 to 100 nM.

As for `N#Cc1ccc(Nc2nc(N[C@@H]3CCOC[C@@H]3N)nnc2C(N)=O)cc1` [Example 76, 3-(((3R,4R)-3-aminotetrahydro-2H-pyran-4-yl)amino)-5-((4-cyanophenyl)amino)-1,2,4-triazine-6-carboxamide], the IC50 lay in the range of 100 to 1000 nM.

In the case of `CCC(=O)N1CCC(c2ccc(Nc3nc(N[C@@H]4CCCC[C@@H]4N)nnc3C(N)=O)cc2)CC1` [Example 28, 3-(((1R,2S)-2-aminocyclohexyl)amino)-5-((4-(1-propionylpiperidin-4-yl)phenyl)amino)-1,2,4-triazine-6-carboxamide], the IC50 lay in the range of 1 to 10 nM.

Consider `NC(=O)c1nnc(N[C@@H]2CCCC[C@@H]2N)nc1Nc1ccc2scnc2c1` [Example 41, 3-(((1R,2S)-2-aminocyclohexyl)amino)-5-(benzo[d]thiazol-5-ylamino)-1,2,4-triazine-6-carboxamide], for which the IC50 was in the range of 1 to 10 nM.

As for `NC(=O)c1nnc(N[C@@H]2CCOC[C@@H]2N)nc1Nc1ccc(Cl)c(Cl)c1` [Example 244, 3-(((3R,4R)-3-aminotetrahydro-2H-pyran-4-yl)amino)-5-((3,4-dichlorophenyl)amino)-1,2,4-triazine-6-carboxamide], the IC50 was 10 to 100 nM.

Take `CC[C@@H](Nc1nnc(C(N)=O)c(Nc2ccc(N3CCOCC3)c(F)c2)n1)C(N)=O` [Example 31, (R)-3-((1-amino-1-oxobutan-2-yl)amino)-5-((3-fluoro-4-morpholinophenyl)amino)-1,2,4-triazine-6-carboxamide]: the IC50 lay in the range of 10 to 100 nM.

For `NC(=O)c1nnc(N[C@@H]2CCOC[C@@H]2N)nc1Nc1ccccc1` [Example 95, 3-(((3R,4R)-3-aminotetrahydro-2H-pyran-4-yl)amino)-5-(phenylamino)-1,2,4-triazine-6-carboxamide], the IC50 is 10 to 100 nM.

`NC(=O)c1nnc(N[C@@H]2CCCC(F)(F)[C@@H]2N)nc1Nc1cccc(C(F)(F)F)c1` [Example 238, 3-(((1R,2R)-2-amino-3,3-difluorocyclohexyl)amino)-5-((3-(trifluoromethyl)phenyl)amino)-1,2,4-triazine-6-carboxamide]: the IC50 was above 1000 nM.

On to `CC[C@@H](Nc1nnc(C(N)=O)c(Nc2cncc(F)c2)n1)C(N)=O` [Example 15, (R)-3-((1-amino-1-oxobutan-2-yl)amino)-5-((5-fluoropyridin-3-yl)amino)-1,2,4-triazine-6-carboxamide], for which the IC50 was 100 to 1000 nM.

As for `NC(=O)c1nnc(N[C@@H]2CCCC[C@@H]2N)nc1Nc1cccc2ncccc12` [Example 46, 3-(((1R,2S)-2-aminocyclohexyl)amino)-5-(quinolin-5-ylamino)-1,2,4-triazine-6-carboxamide], the half-inhibitory concentration (IC50) lay in the range of 1 to 10 nM.

`CC[C@@H](Nc1nnc(C(N)=O)c(Nc2ccc(OC)c(C(F)(F)F)c2)n1)C(N)=O` [Example 112, (R)-3-((1-amino-1-oxobutan-2-yl)amino)-5-((4-methoxy-3-(trifluoromethyl)phenyl)amino)-1,2,4-triazine-6-carboxamide]: the IC50 lay in the range of 100 to 1000 nM.

For the compound `CC[C@@H](Nc1nnc(C(N)=O)c(Nc2ccc(C(F)(F)F)c(Cl)c2)n1)C(N)=O` [Example 241, (R)-3-((1-amino-1-oxobutan-2-yl)amino)-5-((3-chloro-4-(trifluoromethyl)phenyl)amino)-1,2,4-triazine-6-carboxamide], the IC50 lay in the range of 10 to 100 nM.

For orientation: IC50 means the concentration at which inhibition is half-maximal.
